Data set [1] concerns the target T1, cathepsin L (Homo sapiens, UniProt P07711). In words: Enzymatic cleavage by cathepsin L, released DXD quantified by HPLC. In kind it is biochemical. Particulars: pH 6.
The nature of data set [2]: Stability in human plasma. Particulars: 20 hours, 37°C.
Data set [3] has as its target cathepsin B (Homo sapiens, UniProt P07858). In words: Enzymatic cleavage by cathepsin B, released DXD quantified by HPLC. In kind it is biochemical. The following applies: 20 hours of action of cathepsin B, 37°C, pH 5.0. On the procedure: (§1) About 25 mg of DXD reference substance was accurately weighed and placed in a 5 mL volumetric flask. DMSO was added to the scale mark and the mixture was mixed to prepare a 10 mM solution which was marked as the standard stock solution. The standard stock solution was taken and prepared into standard solutions with concentrations of 20nmol/mL, 10nmol/mL, 5nmol/mL, 2nmol/mL, 1nmol/mL, and 0.2nmol/mL. 10uL was taken and injected into HPLC, the peak area was recorded. The linear equation was calculated by using the peak area as the ordinate and the concentration as the abscissa.
(§2) • chromatographic column: Agilent Eclipse Plus C18 5um, 4.6*250mm • Fluorescence detector: […] • Mobile phase A: 0.1%TFA/H2O B: ACN • Flow rate: 1ml/min • Injection volume: 10uL
• Activation buffer: 25mM MES, 5mM DTT, pH 5.0 • Assay buffer: 25 mM MES, pH 5.0. • Cathepsin B: 100 µg/mL in activation buffer, incubated at room temperature for 15 minutes
Preparation of sample solution: An appropriate amount of MI-PEG6-GGFL-AM-DXD and EMC-GGFG-AM-DXD were respectively weighed and added with a certain amount of DMSO solution to make the concentration of the stock solution thereof being 10 umol/mL. Then 10uL of the stock solution was respectively taken and added with 80uL of DMSO to dilute to 1 umol/mL. […]

A short description of data set [4]: Stability in monkey liver homogenate. In kind it is in vitro ADME. The following applies: 20 hours, 37°C, pH 5.0. On the procedure:
(§3) • Assay buffer: 25 mM MES, pH 5.0. • Protein precipitation agent: DMSO/MEOH = 1:1
(§4) Preparation of sample solution: An appropriate amount of MI-PEG6-GGFL-AM-DXD and EMC-GGFG-AM-DXD were weighed and added with a certain amount of DMSO solution to make the concentration of the stock solution thereof being 10 umol/mL. Then 10uL of the stock solution were taken and added with 80uL of DMSO to dilute to 1 umol/mL. Then pure water was added in a ratio of 1:4 to dilute the sample solution to a concentration of 0.2 umol/mL.
An appropriate amount of fast frozen liver by liquid nitrogen was placed in a 4 mL EP tube and weighed. Assay buffer with pH 5.0 was added at a mass-to-volume ratio of 1:5. The tissue was homogenized using a tissue grinder for 3 min. The liver homogenate was then centrifuged at 12,000 rpm for 5 min. The supernatant was collected and stored in a -40°C refrigerator for later use.
The sample solution and the liver homogenate were respectively taken at a volume ratio of 1:9 and shaken thoroughly. Another sample solution and buffer solution (pH 5.0) were also shaken thoroughly at a volume ratio of 1:9 as a blank control solution. The solution was placed in a 37°C constant temperature water bath. 30uL was taken at 0h, 2h, 4h, and 20h, and added with 90uL of protein precipitation agent and shaken thoroughly. […]

Data set [5] can be described thus: Stability in monkey heart homogenate. In kind it is in vitro ADME. The following applies: 20 hours, 37°C, pH 5.0. On the procedure: as §3, §4
An appropriate amount of fast frozen heart by liquid nitrogen was placed in a 4 mL EP tube and weighed. Assay buffer with pH 5.0 was added at a mass-to-volume ratio of 1:5. The tissue was homogenized using a tissue grinder for 3 min. The heart homogenate was then centrifuged at 12,000 rpm for 5 min. The supernatant was collected and stored in a -40°C refrigerator for later use.
The sample solution and the heart homogenate were respectively taken at a volume ratio of 1:9 and shaken thoroughly. Another sample solution and buffer solution (pH 5.0) were also shaken thoroughly at a volume ratio of 1:9 as a blank control solution. The solution was placed in a 37°C constant temperature water bath. 30uL was taken at 0h, 2h, 4h, and 20h, and added with 90uL of protein precipitation agent and shaken thoroughly. […]

Data set [6] is described as follows: Activation in human gastric cancer tumor homogenate (tumor homogenate 1). The following applies: tumor homogenate 1, after 20 hours, 37°C, pH 5.0.
The nature of data set [7]: Activation in CT26 tumor homogenate (tumor homogenate 2). Particulars: tumor homogenate 2 (CT26), 20 hours, 37°C, pH 5.0.
For data set [8], the target named is T1, cathepsin L. In words: Enzymatic cleavage by cathepsin L, released DXD quantified by HPLC. In kind it is biochemical. The following applies: within 20 h. On the procedure:
as §1, §2
• Assay Buffer: 50mM MES, 5mM DTT, 1mM EDTA, 0.005% (w/v) Brij-35, pH6.0. • Cathepsin L: 100 µg/mL in assay buffer, incubated on ice for 15 min.
Preparation of sample solution: An appropriate amount of L-AM-DXD was weighed and added with a certain amount of DMSO solution to make the concentration of the stock solution being 10 umol/mL. Then 10uL of the stock solution was taken and added with 80uL of DMSO to dilute to 1 umol/mL. Then pure water was added in a ratio of 1:4 to dilute the sample solution to a concentration of 0.2 umol/mL. […]

Data set [9] in a line: Stability in human plasma. In kind it is in vitro ADME. Particulars: within 20 hours. On the procedure: • PBS buffer: pH = 7.2 • Protein precipitation agent: DMSO/MEOH = 1:1
Preparation of sample solution: An appropriate amount of MI-PEG6-GGFL-AM-DXD and GGFG-AM-DXD were weighed and added with a certain amount of DMSO solution to make the concentration of the stock solution thereof being 10 umol/mL. Then 10uL of the stock solution was taken and added with 80uL of DMSO to dilute to 1 umol/mL. Then pure water was added in a ratio of 1:4 to dilute the sample solution to a concentration of 0.2 umol/mL.
An appropriate amount of sample was weighed and prepared into a 1 mM solution with DMSO. Human plasma was added at a volume ratio of 1:9 and the solution was incubated in a 37°C incubator. Samples were taken after 0, 2, 4, 6, and 20 h. DMSO/MEOH (1:1) was added at a volume ratio of 1:3 to remove protein. The solution was centrifuged at 12,000 rpm for 5 min and the supernatant was collected. The HPLC method was as described in 1.2 of Example 4.

The subject of data set [10] is Human Fibrosarcoma. In words: Drug efficacy study of drug conjugates on human fibrosarcoma tumor model. In kind it is in vivo, Nude mice.
[11] abbreviates: 5 µmol/kg (1/10 MTD) once a week for 3 weeks, Day 20.

*1 amine or outer side, *2 acyl side, *3 side chain or, on linkers, in order; H or OH if unused. Where a SMILES comes first, the peptide text is derived from it. [ ]: non-standard residue; d: D form. The star is where a group is joined. Exatecan = CC[C@@]1(O)C(=O)OCc2c1cc1n(c2=O)Cc2c-1nc1cc(F)c(C)c3c1c2[C@@H](N*)CC3; Hexanoyl(6-maleimido) = O=C1C=CC(=O)N1CCCCCC(=O)*; Propanoyl(3-maleimido) = O=C1C=CC(=O)N1CCC(=O)*; PEG6 = NCCOCCOCCOCCOCCOCCOCCC(=O)O; NHCH2OCH2CO = O=C(COCN[*:1])[*:2]

The record followed here is EP4682156A1, “LINKER AND DRUG CONJUGATE USING SAME, AND ANTIBODY-DRUG CONJUGATE AND USE THEREOF” (Shanghai Affinity Biopharmaceutical Co., Ltd., priority 2023, dated 2024).

T1 sequence (P07711 114-333): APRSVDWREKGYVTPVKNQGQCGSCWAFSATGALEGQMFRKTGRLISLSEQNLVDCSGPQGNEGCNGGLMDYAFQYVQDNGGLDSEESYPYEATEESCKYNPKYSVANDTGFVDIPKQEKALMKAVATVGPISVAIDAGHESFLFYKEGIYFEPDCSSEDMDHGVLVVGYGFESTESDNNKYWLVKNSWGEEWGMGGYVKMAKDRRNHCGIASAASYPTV

In the case of `CC[C@@]1(O)C(=O)OCc2c1cc1n(c2=O)Cc2c-1nc1cc(F)c(C)c3c1c2[C@@H](NC(=O)COCNC(=O)CNC(=O)[C@H](Cc1ccccc1)NC(=O)CNC(=O)CNC(=O)CCCCCN1C(=O)C=CC1=O)CC3` [EMC-GGFG-AM-DXD, reference compound] ({Hexanoyl(6-maleimido)}-GGFG[NHCH2OCH2CO]-Exatecan), the “DXD produced, share of the reaction substrate (enzymatic cleavage activation efficiency)” value in [1] stood at 27.8%. Besides, the “DXD produced, share of the substrate” value was 2.88% in [2], 27.6% in data set [4] and 7.41% in data set [5]. In addition, in data set [2], the substrate contents came out at 97.1%. Besides, the “DXD produced by enzymatic cleavage, share of the reaction substrate” value in [3] worked out at 45.2%.
As to `CC[C@@]1(O)C(=O)OCc2c1cc1n(c2=O)Cc2c-1nc1cc(F)c(C)c3c1c2[C@@H](NC(=O)COCNC(=O)[C@H](CC(C)C)NC(=O)[C@H](Cc1ccccc1)NC(=O)CNC(=O)CNC(=O)CCOCCOCCOCCOCCOCCOCCNC(=O)CCN1C(=O)C=CC1=O)CC3` [GGFL-AM-DXD] ({Propanoyl(3-maleimido)-PEG6}-GGFL[NHCH2OCH2CO]-Exatecan), the “DXD produced, share of the substrate” value stood at 94.2% in data set [6] and 98.7% in [7].
As to `CC[C@@]1(O)C(=O)OCc2c1cc1n(c2=O)Cc2c-1nc1cc(F)c(C)c3c1c2[C@@H](NC(=O)COCNC(=O)[C@H](CC(C)C)NC(=O)[C@H](Cc1ccccc1)NC(=O)CNC(=O)CNC(=O)CCOCCOCCOCCOCCOCCOCCNC(=O)CCN1C(=O)C=CC1=O)CC3` [S7, MI-PEG6-GGFL-AM-DXd] ({Propanoyl(3-maleimido)-PEG6}-GGFL[NHCH2OCH2CO]-Exatecan), the “Enzymatic cleavage efficiency %” value in data set [8] was determined as 98.3%. In data set [9], this compound gave a Generated load % of 1.7% and a Substrate content % of 98.3%. In data set [10] (setting [11]), the “Anti-tumor rate% Day 20” value was 98% and the “Tumor volume(mm^3) Day 20” value was 20 mm^3. The “treatment efficacy compared with DXd” value in data set [10] (same dose 5 µmol/kg once a week for 3 weeks) is recorded as “significantly improved treatment efficacy”.
